Reference: PubChem BioAssay (NCI)
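How tested: cells in 96-well plates exposed to compound for 48 hours at five concentrations. GI50: concentration for 50% inhibition of growth. At the TGI there is no net growth.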

Legend:
Assay in all cases: NCI anticancer screen, dose series, 48 h
SN12C renal = test system: SN12C renal
RXF 393 renal = test system: RXF 393 renal
SK-OV-3 ovarian = test system: SK-OV-3 ovarian
CAKI-1 renal = test system: CAKI-1 renal
SNB-75 CNS = test system: SNB-75 CNS
SW-620 colon = test system: SW-620 colon
OVCAR-4 ovarian = test system: OVCAR-4 ovarian
HT29 colon = test system: HT29 colon
HOP-92 NSCLC = test system: HOP-92 NSCLC
RPMI-8226 leukemia = test system: RPMI-8226 leukemia

Structure (SMILES): COc1cc(NC(C)CCCNC(C)C)c2ncccc2c1OC (stereo not given)
- GI50 (SN12C renal): > 100 µM
- TGI (SN12C renal): > 100 µM
- GI50 (RXF 393 renal): > 100 µM
- TGI (RXF 393 renal): > 100 µM
- GI50 (SK-OV-3 ovarian): > 100 µM
- TGI (SK-OV-3 ovarian): > 100 µM
- GI50 (CAKI-1 renal): > 100 µM
- TGI (CAKI-1 renal): > 100 µM
- GI50 (SNB-75 CNS): 20.5 µM
- TGI (SNB-75 CNS): > 100 µM
- GI50 (SW-620 colon): 97.1 µM
- TGI (SW-620 colon): > 100 µM
- GI50 (OVCAR-4 ovarian): 4.2 µM
- TGI (OVCAR-4 ovarian): 53.3 µM

Structure (SMILES): CCN(CC)c1nc(NC2CCCCC2)c2nc(N(CC)CC)nc(NC3CCCCC3)c2n1
- TGI (SN12C renal): > 100 µM
- TGI (RXF 393 renal): 99.8 µM
- TGI (HT29 colon): > 100 µM
- TGI (SK-OV-3 ovarian): > 100 µM
- TGI (SW-620 colon): > 100 µM
- TGI (HOP-92 NSCLC): > 100 µM

Structure (SMILES): Cc1cc2c(cc1CO)N1Cc3cc(C)c(CO)cc3N(C2)C1
- TGI (SN12C renal): > 100 µM
- TGI (RXF 393 renal): > 100 µM
- TGI (HT29 colon): > 100 µM
- TGI (SK-OV-3 ovarian): > 100 µM
- TGI (SNB-75 CNS): > 100 µM
- TGI (SW-620 colon): > 100 µM
- TGI (OVCAR-4 ovarian): > 100 µM
- TGI (RPMI-8226 leukemia): > 100 µM

Structure (SMILES): C=Cc1c(C)c2cc3[nH]c(cc4nc(cc5nc(cc1[nH]2)C(C)=C5CCC(=O)N(CC)CC)C(CCC(=O)N(CC)CC)=C4C)c(C)c3C=C
- TGI (SN12C renal): > 100 µM
- TGI (RXF 393 renal): > 100 µM
- TGI (HT29 colon): > 100 µM
- TGI (SK-OV-3 ovarian): > 100 µM
- TGI (SNB-75 CNS): 88.3 µM
- TGI (SW-620 colon): > 100 µM
- TGI (OVCAR-4 ovarian): > 100 µM
- TGI (HOP-92 NSCLC): > 100 µM

Structure (SMILES): c1ccc(C2CC(c3ccc4ccccc4c3)=Nc3ccccc3S2)cc1 (stereo not given)
- TGI (SN12C renal): 30.4 µM
- TGI (RXF 393 renal): 33.4 µM
- TGI (HT29 colon): 30.8 µM
- TGI (SK-OV-3 ovarian): 80.9 µM
- TGI (SNB-75 CNS): 40.4 µM
- TGI (SW-620 colon): 33.8 µM
- TGI (OVCAR-4 ovarian): 37.5 µM
- TGI (RPMI-8226 leukemia): > 100 µM

Structure (SMILES): CCCCN1C(=O)/C(=c2\sc3n(c2=O)C2C(NN=3)N(CC)C(=O)N2CC)c2ccccc21 (stereo not given)
- GI50 (RXF 393 renal): 0.365 µM
- TGI (RXF 393 renal): 2.23 µM
- GI50 (SK-OV-3 ovarian): 0.911 µM
- TGI (SK-OV-3 ovarian): 5.89 µM
- GI50 (SNB-75 CNS): 0.258 µM
- TGI (SNB-75 CNS): 1.56 µM
- GI50 (SW-620 colon): 0.442 µM
- TGI (SW-620 colon): > 100 µM
- GI50 (OVCAR-4 ovarian): 0.909 µM
- TGI (OVCAR-4 ovarian): 4.83 µM
- GI50 (HOP-92 NSCLC): 1.07 µM
- TGI (HOP-92 NSCLC): 4.58 µM

Structure (SMILES): c1cc[c]([Sn]([O]c2cccc3cccnc23)([O]c2cccc3cccnc23)[c]2ccccc2)cc1
- GI50 (SN12C renal): 0.481 µM
- TGI (SN12C renal): 1.64 µM
- GI50 (SK-OV-3 ovarian): 1.83 µM
- TGI (SK-OV-3 ovarian): 3.24 µM
- GI50 (CAKI-1 renal): 0.179 µM
- TGI (CAKI-1 renal): 0.383 µM
- GI50 (SNB-75 CNS): 0.419 µM
- TGI (SNB-75 CNS): 1.45 µM
- GI50 (OVCAR-4 ovarian): 0.214 µM
- TGI (OVCAR-4 ovarian): 0.406 µM

Structure (SMILES): CCOC(=O)C1=C(C(=O)OCC)C2(c3ccccc3)N(O1)c1ccccc1C2(C)C (stereo not given)
- TGI (RXF 393 renal): > 100 µM
- TGI (HT29 colon): > 100 µM
- TGI (SK-OV-3 ovarian): 95.2 µM
- TGI (CAKI-1 renal): > 100 µM
- TGI (SNB-75 CNS): 89.5 µM
- TGI (SW-620 colon): > 100 µM
- TGI (OVCAR-4 ovarian): 71.8 µM
- TGI (RPMI-8226 leukemia): 57.3 µM

Structure (SMILES): CCC[CH2][Sn]([CH2]CCC)([O]C(=O)c1cccc(F)c1F)[O]C(=O)c1cccc(F)c1F
- GI50 (SN12C renal): 1.19 µM
- TGI (SN12C renal): 2.44 µM
- GI50 (RXF 393 renal): 0.321 µM
- TGI (RXF 393 renal): 1.22 µM
- GI50 (HT29 colon): 1.62 µM
- TGI (HT29 colon): 2.99 µM
- GI50 (SK-OV-3 ovarian): 2.41 µM
- TGI (SK-OV-3 ovarian): 4.49 µM
- GI50 (SNB-75 CNS): 0.874 µM
- TGI (SNB-75 CNS): 2.1 µM
- GI50 (SW-620 colon): 0.472 µM
- TGI (SW-620 colon): 1.67 µM
- GI50 (OVCAR-4 ovarian): 1.86 µM
- TGI (OVCAR-4 ovarian): 3.31 µM
- GI50 (HOP-92 NSCLC): 1.3 µM
- TGI (HOP-92 NSCLC): 2.57 µM

Structure (SMILES): CC1=C(C#N)C(/C=C(\Cl)c2ccc(F)cc2)C(C#N)=C(C)N1
- GI50 (SN12C renal): > 100 µM
- TGI (SN12C renal): > 100 µM
- GI50 (RXF 393 renal): > 100 µM
- TGI (RXF 393 renal): > 100 µM
- GI50 (HT29 colon): > 100 µM
- TGI (HT29 colon): > 100 µM
- GI50 (SK-OV-3 ovarian): > 100 µM
- TGI (SK-OV-3 ovarian): > 100 µM
- GI50 (CAKI-1 renal): > 100 µM
- TGI (CAKI-1 renal): > 100 µM
- GI50 (SNB-75 CNS): 86.3 µM
- TGI (SNB-75 CNS): > 100 µM
- GI50 (SW-620 colon): > 100 µM
- TGI (SW-620 colon): > 100 µM
- GI50 (OVCAR-4 ovarian): > 100 µM
- TGI (OVCAR-4 ovarian): > 100 µM
- GI50 (RPMI-8226 leukemia): 36.3 µM
- TGI (RPMI-8226 leukemia): > 100 µM

Structure (SMILES): CCN(CC)c1ccc(/C=N/NC(=O)CSc2nc3ccccc3c(=O)n2Cc2ccc(S(N)(=O)=O)cc2)c(O)c1
- GI50 (SN12C renal): 1.93 µM
- TGI (SN12C renal): > 100 µM
- GI50 (RXF 393 renal): 2.5 µM
- TGI (RXF 393 renal): > 100 µM
- GI50 (HT29 colon): 3.01 µM
- TGI (HT29 colon): > 100 µM
- GI50 (SK-OV-3 ovarian): 1.32 µM
- TGI (SK-OV-3 ovarian): > 100 µM
- GI50 (CAKI-1 renal): 1.02 µM
- TGI (CAKI-1 renal): > 100 µM
- GI50 (SNB-75 CNS): 2.86 µM
- TGI (SNB-75 CNS): > 100 µM
- GI50 (SW-620 colon): 0.949 µM
- TGI (SW-620 colon): > 100 µM
- GI50 (OVCAR-4 ovarian): 0.311 µM
- TGI (OVCAR-4 ovarian): > 100 µM
- GI50 (RPMI-8226 leukemia): 0.521 µM
- TGI (RPMI-8226 leukemia): 4.85 µM

Structure (SMILES): Cc1ccc(O)c(NC2=C(Cl)C(=O)N(Cc3ccccc3)C2=O)c1
- GI50 (SN12C renal): 14.9 µM
- TGI (SN12C renal): 32.7 µM
- GI50 (RXF 393 renal): 15 µM
- TGI (RXF 393 renal): 39.3 µM
- GI50 (HT29 colon): 33.3 µM
- TGI (HT29 colon): > 100 µM
- GI50 (SK-OV-3 ovarian): 80.5 µM
- TGI (SK-OV-3 ovarian): > 100 µM
- GI50 (CAKI-1 renal): 27.5 µM
- TGI (CAKI-1 renal): 82.3 µM
- GI50 (SW-620 colon): 32.5 µM
- TGI (SW-620 colon): > 100 µM
- GI50 (OVCAR-4 ovarian): 31.7 µM
- TGI (OVCAR-4 ovarian): > 100 µM
- GI50 (RPMI-8226 leukemia): 7.7 µM
- TGI (RPMI-8226 leukemia): 36.6 µM

Structure (SMILES): CC1=C(C(=O)Nc2ccccc2)C(c2cc(Cl)cc(Cl)c2)C(C(=O)Nc2ccccc2)=C(C)N1
- TGI (SN12C renal): 25.3 µM
- TGI (RXF 393 renal): 26.3 µM
- TGI (HT29 colon): 21.4 µM
- TGI (SK-OV-3 ovarian): 98.7 µM
- TGI (CAKI-1 renal): 31.6 µM
- TGI (SNB-75 CNS): 34 µM
- TGI (SW-620 colon): 25.9 µM
- TGI (OVCAR-4 ovarian): 19.2 µM
- TGI (RPMI-8226 leukemia): 25.2 µM

Structure (SMILES): Cc1cn2c(/C=N/N=C(N)N)c(-c3ccncc3)nc2s1
- GI50 (SN12C renal): 32.7 µM
- TGI (SN12C renal): 69.7 µM
- GI50 (RXF 393 renal): 14.9 µM
- TGI (RXF 393 renal): 29.8 µM
- GI50 (HT29 colon): 20.1 µM
- TGI (HT29 colon): 46.8 µM
- GI50 (CAKI-1 renal): > 100 µM
- TGI (CAKI-1 renal): > 100 µM
- GI50 (SW-620 colon): 18.9 µM
- TGI (SW-620 colon): 33.8 µM
- GI50 (OVCAR-4 ovarian): 13.2 µM
- TGI (OVCAR-4 ovarian): 32 µM
- GI50 (HOP-92 NSCLC): 13.4 µM
- TGI (HOP-92 NSCLC): 26.9 µM
